Test results: patent US20090076029A1 (Palatin Technologies, Inc., priority 2007, published 2009)
Where two headings read alike, the source gives them in different places.

How the values were obtained:
hMC4-R = tested on: T1, hMC4-R; format: binding, human; settings: for Inhibition at 1 μM (AgRP) MC4-R: 1 μM compound
T1 construct: expressed in transfected cells; host or cells: HEK-293
Summary of the method: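 Membranes from hMC4-R-expressing cells incubated 1 h at 37 °C with 0.2 nM [I^125]-AgRP (83-132) and increasing compound in 25 mM HEPES pH 7.5, 100 mM NaCl, 2 mM CaCl2, 2 mM MgCl2, 0.3 mM 1,10-phenanthroline, 0.5% BSA. Filtration, gamma counting; specific binding kept ≤10% of added counts.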

MC4-R [1] = tested on: T2, MC4-R; format: cell-based
T2 construct: expressed in transfected cells; host or cells: HEK-293
From the text: Assay for Antagonists of AgRP in HEK-293/MC4-R Cells stimulated with Forskolin. […] AgRP causes a decrease in the basal adenylyl cyclase activity only to the extent of 40-50%. Even though the AgRP-induced decrease in cAMP levels is substantial, conventional assay methods, such as those described above, have limited sensitivity, precluding detecting small changes that are reversed by certain antagonists to AgRP. This limitation was circumvented by the use of a non-specific activator, forskolin, which directly activates adenylyl cyclase activity and raises cyclic AMP levels. Forskolin, a cell permeable diterpenoid initially isolated from Coleus forskohlii, has the ability to stimulate adenylyl cyclase activity and increase intracellular cAMP, thus activating cAMP-dependent protein kinase and other cAMP receptor proteins. See, e.g., Seamon, K. B., Daly, J. W. Forskolin: a unique diterpene activator of cyclic AMP-generating system. J. Cyclic Nucleotide Res. 7(4):201-24, 1981; Fradkin, J. E., Cook, G. H., Kilhoffer, M. C., Wolff, J. Forskolin stimulation of thyroid adenylate cyclase and cyclic 3′,5′-adenosine monophosphate accumulation. Endocrinology 111 (3):849-56, 1982; Barber, R., Goka, T. J. Adenylate cyclase activity as a function of forskolin concentration. J. Cyclic Nucleotide Protein Phosphor. Res. 10(1):23-9, 1985; and Laurenza, A., Sutkowski, E. M., Seamon, K. B. Forskolin: a specific stimulator of adenylyl cyclase or a diterpene with multiple sites of action? Trends Pharmacol. Sci. 10(11):442-7, 1989. […] The EC50 value was about 5 μM. AgRP inhibited the forskolin-induced response by 65% at a concentration of 10 nM. The difference in forskolin stimulated response and the inhibition due to AgRP in the cAMP levels was exploited to screen compounds for their ability to antagonize AgRP inhibition and […] levels of cAMP accumulation.
Experimental details for assays included incubating cells with the test compound in the presence of the inverse agonist AgRP with the extent of reversal of the AgRP effect measured by following the increase in the levels of intracellular cAMP. HEK-293 cells expressing MCR-4 were suspended in 10 mM HEPES/Earle's Balanced Salt Solution at pH 7.5 with the phosphodiesterase inhibitor IBMX, and pre-incubated for 30 minutes with the compounds (0.5-5000 nM). The cells were then treated with AgRP (10 nM) and incubated further for 30 minutes. The cells were then treated with forskolin (10 μM) and incubated for an additional 60 minutes. Cells were lysed and cAMP was measured by EIA kit (Amersham).

MC1-R = tested on: T3, MC1-R; assay: cAMP functional assay, B-16 mouse melanoma cells expressing MC1-R; format: cell-based; settings: cAMP assay at 1 μM
T3 construct: from B-16 mouse melanoma cells (containing MC1-R); endogenous in cells; host or cells: B-16 mouse melanoma cells

MC4-R [2] = tested on: T2, MC4-R; format: cell-based; remark: listed apart in the source
Experimental: Antagonists of AgRP. […] The experimental protocol was essentially as described above for the antagonist assay. […] HEK-293 cells expressing MC4-R were suspended in 10 mM HEPES (pH 7.5) and Earle's Balanced Salt Solution with the phosphodiesterase inhibitor IBMX. The cells were pre-incubated for 30 minutes with the test compounds over a concentration of 0.5 nM to 5000 nM. The cells were then treated with AgRP (100 nM) and incubated for 1 hour. Cells were lysed and cAMP was measured using an EIA kit (Amersham).

mutant L250Q MC4-R = tested on: T4, mutant L250Q MC4-R; assay: Reversal of AgRP inverse agonism in cells expressing mutant L250Q MC4-R; format: cell-based, human; settings: HEK-293 cells expressing mutant L250Q MC4 receptors; FIG. 8
T4 construct: expressed in transfected cells
From the text: Expression of recombinant mutant hMC4-R in which a glutamine is exchanged for leucine in amino acid position 250 (L250Q) results in production of increased levels of cAMP in the absence of agonist (Vaisse C. et al., Melanocortin-4 receptor mutations are a frequent and heterogeneous cause of morbid obesity. J Clin Invest 106:253-262, 2000). In some cases, reversal of the inverse agonist activity of AgRP was examined in cells that expressed mutant L250Q MC4-R coupled to a high level of constitutive activity. FIG. 8 illustrates the results obtained with the mutant L250Q MC4-R system.

[3] = MC4-R membranes, Table 1, read-out: Ki (nM) I125-AgRP

## Cc1ccc(C[C@@H](N)C(=O)N2C[C@@H](C)N(CCc3ccc4ccccc4c3)C[C@@H]2CCCNC(=N)N)c(C)c1 [Example 28, N-{3-[1-[2(R)-Amino-3-(2,4-dimethyl-phenyl)-propionyl]-5(R)-methyl-4-(2-naphthalen-2-yl-ethyl)-piperazin-2(S)-yl]-propyl}-guanidine]
hMC4-R
  Inhibition at 1 μM (AgRP) MC4-R: 100%
hMC4-R; [3]
  Ki: 3 nM
hMC4-R; read-out: Ki (nM) (AgRP) MC4-R
  Ki: 3 nM
MC4-R [1]
  effect on AgRP inhibition of forskolin-stimulated cAMP levels: reversal of AgRP inhibition

## CC(=O)N[C@H](Cc1ccc(C)cc1C)C(=O)N1C[C@@H](C)N(CCc2ccc3ccccc3c2)C[C@@H]1CCCNC(=N)N [Example 26, N-{1(R)-(2,4-Dimethyl-benzyl)-2-[2(S)-(3-guanidino-propyl)-5(R)-methyl-4-(2-naphthalen-2-yl-ethyl)-piperazin-1-yl]-2-oxo-ethyl}-acetamide]
hMC4-R
  Inhibition at 1 μM (AgRP) MC4-R: 100%
hMC4-R; [3]
  Ki: 3 nM
hMC4-R; read-out: Ki (nM) (AgRP) MC4-R
  Ki: 0.18 nM
MC4-R [1]
  effect on AgRP inhibition of forskolin-stimulated cAMP levels: reversal of AgRP inhibition

## CC(C)C[C@@H]1CN(C(=O)[C@H](N)Cc2ccc(Cl)cc2Cl)[C@@H](CCCNC(=N)N)CN1CCc1ccc2ccccc2c1 [Example 4, N-{3-[1-[2(R)-Amino-3-(2,4-dichloro-phenyl)-propionyl]-5(R)-isobutyl-4-(2-naphthalen-2-yl-ethyl)-piperazin-2(S)-yl]-propyl}-guanidine]
hMC4-R
  Inhibition at 1 μM (AgRP) MC4-R: 100%
hMC4-R; [3]
  Ki: 6 nM
hMC4-R; read-out: Ki (nM) (AgRP) MC4-R
  Ki: 6 nM
MC1-R
  functional status at MC1-R: no intrinsic activity (intrinsic activity below 0.1 (10%) is classified as inactive or having no intrinsic activity)
MC4-R [2]
  activity on AgRP induced inverse agonism: antagonistic activity
Mutant L250Q MC4-R
  effect on AgRP-induced decrease in cAMP levels: reversal of AgRP-induced decrease in the levels of cAMP
